Holding throughout (type): functional
For test [1], the system named is Echinochloa crus-galli. Briefly: Herbicidal activity against barnyard grass (Echinochloa crusgalli L. Beauv.) as the dose required for 50% control.
Test [2] relates to Panicum virgatum. Put plainly: Herbicidal activity against Switch grass (Panicum virgatum L.) as the dose required for 50% control.
The test system of test [3] is Setaria viridis. Put plainly: Herbicidal activity against green foxtail (Setaria viridis L. Beauv.) as the dose required for 50% control.

Here are results for 38 molecules from ChEMBL document CHEMBL1122355, “Quantitative structure-activity relationships for 2-[(phenylmethyl)sulfonyl]pyridine 1-oxide herbicides” (1983).

As to `Cc1ccccc1C(C)S(=O)(=O)c1cccc[n+]1[O-]` (centres undefined), the “-Log ED50” value in test [1] came out at 1.58 M acre-1; in test [2], 1.29 M acre-1; in test [3], 1.29 M acre-1.
For the molecule `O=S(=O)(Cc1ccccc1)c1cccc[n+]1[O-]`, the “-Log ED50” value in test [1] is 0.29 M acre-1; in test [2], 0.04 M acre-1; in test [3], 0.14 M acre-1.
With `CCCCOc1cccc(CS(=O)(=O)c2cccc[n+]2[O-])c1`, the “-Log ED50” value in test [1] is 0.15 M acre-1; in test [2], -0.15 M acre-1; in test [3] it was -0.15 M acre-1.
With `COc1ccc(C)cc1CS(=O)(=O)c1cccc[n+]1[O-]`, the entries for the “-Log ED50” value in test [1], in test [2] and in test [3] were 1.02 M acre-1, 0.73 M acre-1 and 0.41 M acre-1, respectively.
Take `COc1cc(CS(=O)(=O)c2cccc[n+]2[O-])cc(OC)c1OC`: the “-Log ED50” value was -0.77 M acre-1 in test [1], -0.77 M acre-1 in test [2] and -0.79 M acre-1 in test [3].
In the case of `COc1ccc(Br)c(CS(=O)(=O)c2cccc[n+]2[O-])c1`, the entries for the “-Log ED50” value in test [1], in test [2] and in test [3] were 0.6 M acre-1, 0.95 M acre-1 and 0.5 M acre-1, respectively.
In the same order, the values of `CC(c1cccc(Cl)c1F)S(=O)(=O)c1cccc[n+]1[O-]` (centres undefined) are 1.36 M acre-1, 1.24 M acre-1 and 1.05 M acre-1.
For the molecule `CC(c1cccc(C(F)(F)F)c1)S(=O)(=O)c1cccc[n+]1[O-]` (centres undefined), the “-Log ED50” value in test [1] was 0.46 M acre-1; in test [2], 1.37 M acre-1; in test [3], 0.77 M acre-1.
In the case of `CC(C)c1ccc(C(C)C)c(C(C)S(=O)(=O)c2cccc[n+]2[O-])c1` (centres undefined), the “-Log ED50” value in test [1] was 0.78 M acre-1; in test [2], 0.19 M acre-1; in test [3] it was 0.19 M acre-1.
On to `CC(C)c1ccc(CS(=O)(=O)c2cccc[n+]2[O-])cc1`, for which the results for the -Log ED50 in test [1], in test [2] and in test [3] were -0.1 M acre-1, 0.62 M acre-1 and -0.1 M acre-1, respectively.
Consider `O=S(=O)(Cc1ccc(-c2ccccc2)cc1)c1cccc[n+]1[O-]`, for which the “-Log ED50” value in test [1] was -0.69 M acre-1; in test [2], -0.19 M acre-1; in test [3], -0.54 M acre-1.
On the same counts, the results for `Cc1ccc(C(C)C)cc1C(C)S(=O)(=O)c1cccc[n+]1[O-]` (centres undefined) are 0.89 M acre-1, 0.7 M acre-1 and 0.57 M acre-1.
Turning to `Cc1ccc(C(F)(F)F)cc1C(C)S(=O)(=O)c1cccc[n+]1[O-]` (centres undefined), the “-Log ED50” value in test [1] came out at 0.79 M acre-1; in test [2] it was 1.09 M acre-1; in test [3] it was 1.09 M acre-1.
Turning to `N#Cc1ccccc1CS(=O)(=O)c1cccc[n+]1[O-]`, the “-Log ED50” value is 0.18 M acre-1 in test [1], -0.22 M acre-1 in test [2] and -0.01 M acre-1 in test [3].
On the same counts, the results for `Cc1ccc(C(C)S(=O)(=O)c2cccc[n+]2[O-])cc1C` (centres undefined) are 1.31 M acre-1, 1.24 M acre-1 and 1.07 M acre-1.
Regarding `Cc1ccc(Cl)c(C(C)S(=O)(=O)c2cccc[n+]2[O-])c1` (centres undefined), the “-Log ED50” value in test [1] was 1.35 M acre-1; in test [2] it was 0.82 M acre-1; in test [3], 0.66 M acre-1.
For the molecule `CC(c1ccc(Cl)cc1)S(=O)(=O)c1cccc[n+]1[O-]` (centres undefined), the figures for the “-Log ED50” value in test [1], in test [2] and in test [3] were 0.9 M acre-1, 1.14 M acre-1 and 0.82 M acre-1, respectively.
As for `Cc1cc(Cl)ccc1C(C)S(=O)(=O)c1cccc[n+]1[O-]` (centres undefined), the entries for the “-Log ED50” value in test [1], in test [2] and in test [3] were 0.84 M acre-1, 0.98 M acre-1 and 0.79 M acre-1, respectively.
As to `CC(c1c(F)cccc1Cl)S(=O)(=O)c1cccc[n+]1[O-]` (centres undefined), the figures for the “-Log ED50” value in test [1], in test [2] and in test [3] were 1.35 M acre-1, 1.65 M acre-1 and 1.35 M acre-1, respectively.
Consider `CC(c1ccc(S(C)(=O)=O)cc1)S(=O)(=O)c1cccc[n+]1[O-]` (centres undefined), for which the “-Log ED50” value in test [1] is -0.43 M acre-1; in test [2], -0.35 M acre-1; in test [3], -0.43 M acre-1.
For `CC(c1cc(F)ccc1F)S(=O)(=O)c1cccc[n+]1[O-]` (centres undefined), the results for the “-Log ED50” value in test [1], in test [2] and in test [3] were 1.22 M acre-1, 1.22 M acre-1 and 1.17 M acre-1, respectively.
On to `CC(c1cc(C(F)(F)F)ccc1Cl)S(=O)(=O)c1cccc[n+]1[O-]` (centres undefined), for which the “-Log ED50” value in test [1] came to 0.91 M acre-1; in test [2] it was 1.26 M acre-1; in test [3], 0.63 M acre-1.
For the molecule `O=S(=O)(Cc1cccc(Br)c1)c1cccc[n+]1[O-]`, the figures for the “-Log ED50” value in test [1], in test [2] and in test [3] were 0.16 M acre-1, 0.03 M acre-1 and -0.14 M acre-1, respectively.
Take `Cc1ccc(C)c(CS(=O)(=O)c2cccc[n+]2[O-])c1`: the “-Log ED50” value in test [1] amounted to 1.09 M acre-1; in test [2] it was 0.99 M acre-1; in test [3] it was 0.39 M acre-1.
Take `O=S(=O)(Cc1ccccc1F)c1cccc[n+]1[O-]`: the “-Log ED50” value in test [1] was determined as 0.37 M acre-1; in test [2], 0.77 M acre-1; in test [3], 0.07 M acre-1.
For the molecule `Cc1ccc(C)c(C(C)S(=O)(=O)c2cccc[n+]2[O-])c1` (centres undefined), the “-Log ED50” value was determined as 1.3 M acre-1 in test [1], 1.25 M acre-1 in test [2] and 1.25 M acre-1 in test [3].
Consider `O=S(=O)(Cc1ccccc1I)c1cccc[n+]1[O-]`, for which the “-Log ED50” value in test [1] was 0.52 M acre-1; in test [2], 0.32 M acre-1; in test [3], 0.22 M acre-1.
Regarding `O=S(=O)(Cc1ccccc1Cl)c1cccc[n+]1[O-]`, the “-Log ED50” value in test [1] turned out to be 0.85 M acre-1; in test [2] it was 0.4 M acre-1; in test [3], 0.43 M acre-1.
Consider `O=S(=O)(Cc1c(Cl)cccc1Cl)c1cccc[n+]1[O-]`, for which the values for the -Log ED50 in test [1], in test [2] and in test [3] were 0.96 M acre-1, 0.74 M acre-1 and 0.74 M acre-1, respectively.
On to `CCc1ccc(CC)c(C(C)S(=O)(=O)c2cccc[n+]2[O-])c1` (centres undefined), for which the “-Log ED50” value in test [1] was 1.15 M acre-1; in test [2], 1.15 M acre-1; in test [3], 1.05 M acre-1.
On to `CC(c1cc(Cl)ccc1Cl)S(=O)(=O)c1cccc[n+]1[O-]` (centres undefined), for which the “-Log ED50” value in test [1] came out at 1.07 M acre-1; in test [2], 1.07 M acre-1; in test [3] it was 0.86 M acre-1.
With `O=S(=O)(Cc1ccccc1Oc1ccccc1)c1cccc[n+]1[O-]`, the “-Log ED50” value was -0.12 M acre-1 in test [1], 0.11 M acre-1 in test [2] and -0.03 M acre-1 in test [3].
With `Cc1ccc(C)c(CS(=O)(=O)c2cccc[n+]2[O-])c1C`, the “-Log ED50” value in test [1], in test [2] and in test [3] was 0.7 M acre-1 each time.
On to `CC(c1ccc([N+](=O)[O-])cc1)S(=O)(=O)c1cccc[n+]1[O-]` (centres undefined), for which the figures for the “-Log ED50” value in test [1], in test [2] and in test [3] were 0.43 M acre-1, 0.43 M acre-1 and 0.23 M acre-1, respectively.
As to `Cc1c(Cl)ccc(C(C)S(=O)(=O)c2cccc[n+]2[O-])c1Cl` (centres undefined), the “-Log ED50” value in test [1] worked out at 0.68 M acre-1; in test [2], 1 M acre-1; in test [3], 0.89 M acre-1.
On to `O=S(=O)(Cc1c(Cl)ccc(Cl)c1Cl)c1cccc[n+]1[O-]`, for which the “-Log ED50” value amounted to 0.81 M acre-1 in test [1], 0.81 M acre-1 in test [2] and 0.49 M acre-1 in test [3].
Consider `CC(C)c1ccc(C(C)C)c(CS(=O)(=O)c2cccc[n+]2[O-])c1`, for which the “-Log ED50” value in test [1], in test [2] and in test [3] was -0.02 M acre-1 in each case.
Consider `COc1ccc(CS(=O)(=O)c2cccc[n+]2[O-])cc1OC`, for which the “-Log ED50” value in test [1] was 0.13 M acre-1; in test [2], 0.23 M acre-1; in test [3] it was -0.01 M acre-1.
